These results are taken from patent US20260070917A1, “CYCLIN DEPENDENT KINASE DEGRADERS AND METHODS OF USE THEREOF” (Differentiated Therapeutics Inc, priority 2023, published 2026).

Each structure is given as a SMILES string. Like-named read-outs stand apart in the source and are kept apart here.

Holding throughout (type): cell-based
The target in assay [1] is T1, CDK2 (Homo sapiens, UniProt P24941).
T1 construct: host or cells: HEK293-CDK2-Hibit
As to the kind of experiment: HiBit Assay Protocol for CDK2 (HIBIT protein quantification, degradation). The note with it: HEK293-CDK2-Hibit cells, compound treatment for 6 hours; for DC50: ABS DC50. The method, boiled down:
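HEK293 cells expressing HiBiT-tagged CDK2 were seeded overnight, then treated 6 h with a 3-fold, 10-point compound dilution series. CDK2 levels were read as luminescence after lytic HiBiT/LgBiT detection, normalised to DMSO-only and medium-only controls, and DC50 derived by curve fitting.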
On the technique in general: With HiBiT, luminescence reflects the tagged protein that the partner subunit can reach.

Assay [2] concerns the target T2, CDK9 (Homo sapiens, UniProt P50750).
T2 construct: host or cells: HEK293-CDK9-Hibit
Description: HiBit Assay Protocol for CDK9 (HIBIT protein quantification, degradation). The note with it: HEK293-CDK9-Hibit cells, compound treatment for 6 hours, read-out: CDK9 HIBIT Protein Quantification Maximum. The method, boiled down:
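HEK293 cells carrying HiBiT-tagged CDK9 treated 6 h with compounds in a 3-fold, 10-point dilution series. CDK9 level read by lytic Nano-Glo HiBiT/LgBiT luminescence and normalized to 0.1% DMSO (high) and medium-only (low) controls. DC50 from curve fitting.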

Assay [3] addresses T3, CCNE1 (Homo sapiens, UniProt P24864).
T3 construct: host or cells: HEK293-CCNE1-Hibit
As to the kind of experiment: HiBit Assay Protocol for CCNE1 (HIBIT protein quantification, degradation). The note with it: HEK293-CCNE1-Hibit cells, compound treatment for 6 hours. The gist of the method:
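HEK293 cells expressing HiBiT-tagged CCNE1 were seeded overnight, then treated 6 h with a 3-fold, 10-point compound dilution series. HiBiT levels were read by lytic LgBiT luminescence and normalised to DMSO-only (high) and medium-only (low) controls. DC50 was derived by curve fitting.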

T3 sequence (P24864 whole entry): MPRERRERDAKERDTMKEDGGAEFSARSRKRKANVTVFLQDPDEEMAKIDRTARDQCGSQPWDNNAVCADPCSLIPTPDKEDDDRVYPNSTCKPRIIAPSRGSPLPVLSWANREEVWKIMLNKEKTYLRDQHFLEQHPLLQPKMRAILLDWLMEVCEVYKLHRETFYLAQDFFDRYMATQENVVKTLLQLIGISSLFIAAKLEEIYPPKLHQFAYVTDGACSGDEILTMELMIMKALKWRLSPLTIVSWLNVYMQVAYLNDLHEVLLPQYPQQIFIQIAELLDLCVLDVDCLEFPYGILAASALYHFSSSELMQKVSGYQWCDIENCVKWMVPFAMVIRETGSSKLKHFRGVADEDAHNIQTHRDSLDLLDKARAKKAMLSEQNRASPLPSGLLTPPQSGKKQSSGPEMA
T2 sequence (P50750 whole entry): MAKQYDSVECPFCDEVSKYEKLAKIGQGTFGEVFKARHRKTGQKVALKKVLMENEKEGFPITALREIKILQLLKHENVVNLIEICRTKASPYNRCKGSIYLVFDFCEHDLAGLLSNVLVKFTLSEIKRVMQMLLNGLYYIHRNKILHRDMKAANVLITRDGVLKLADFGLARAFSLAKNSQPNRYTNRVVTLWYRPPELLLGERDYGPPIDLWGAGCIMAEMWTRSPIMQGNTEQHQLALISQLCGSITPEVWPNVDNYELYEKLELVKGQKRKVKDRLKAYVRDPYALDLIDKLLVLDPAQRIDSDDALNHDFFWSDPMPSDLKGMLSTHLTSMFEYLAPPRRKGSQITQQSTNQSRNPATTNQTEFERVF

The term DC50 denotes the concentration giving 50% degradation. As for `Cn1c(=O)n(C2CCC(=O)NC2=O)c2cccc(N3CCC(Cn4cc(S(=O)(=O)N5CCC(Nc6ncc7c(n6)N([C@@H]6CCC[C@@H](O)C6)C(=O)C76CC6)CC5)cn4)CC3)c21` (stereo partly drawn) [Compound 130, 3-(4-(4-((4-((4-((7′-((1R,3R)-3-Hydroxycyclohexyl)-6′-oxo-6′,7′-dihydrospiro[cyclopropane-1,5′-pyrrolo[2,3-d]pyrimidin]-2′-yl)amino)piperidin-1-yl)sulfonyl)-1H-pyrazol-1-yl)methyl)piperidin-1-yl)-3-methyl-2-oxo-2,3-dihydro-1H-benzo[d]imidazol-1-yl)piperidine-2,6-dione], in assay [1], the “CDK2 HIBIT Protein Quantification Maximum” value amounted to 76% and it took 15.8 nM to reach half-maximal degradation (DC50). Also, the Dmax in assay [2] is 13%. Moreover, the “CCNE1 HIBIT Protein Quantification Maximum” value in assay [3] amounted to 34%.

Consider `O=C1CCC(N2Cc3cc(CN4CC(Oc5cccc(S(=O)(=O)N6CCC(Nc7ncc8c(n7)N([C@@H]7CCC[C@@H](O)C7)C(=O)C87CC7)CC6)c5)C4)ccc3C2=O)C(=O)N1` (stereo partly drawn) [Compound 132, 3-[5-({3-[3-(4-{7′-[(1R,3R)-3-Hydroxycyclohexyl]-6′-oxospiro[cyclopropane-1,5′-pyrrolo[2,3-d]pyrimidin]-2′-ylamino}piperidin-1-ylsulfonyl)phenoxy]azetidin-1-yl}methyl)-1-oxo-3H-isoindol-2-yl]piperidine-2,6-dione], for which the “CDK2 HIBIT Protein Quantification Maximum” value in assay [1] is on record as 48%. In addition, the Dmax in assay [2] (6 h) was determined as 7%. Besides, the “CCNE1 HIBIT Protein Quantification Maximum” value in assay [3] turned out to be 47%.

Turning to `O=C1CCC(N2Cc3cc(N4CCC(N5CC(Oc6cccc(S(=O)(=O)N7CCC(Nc8ncc9c(n8)N([C@@H]8CCC[C@@H](O)C8)C(=O)C98CC8)CC7)c6)C5)CC4)ccc3C2=O)C(=O)N1` (stereo partly drawn) [Compound 134, 3-[5-(4-{3-[3-(4-{7′-[(1R,3R)-3-Hydroxycyclohexyl]-6′-oxospiro[cyclopropane-1,5′-pyrrolo[2,3-d]pyrimidin]-2′-ylamino}piperidin-1-ylsulfonyl)phenoxy]azetidin-1-yl}piperidin-1-yl)-1-oxo-3H-isoindol-2-yl]piperidine-2,6-dione], in assay [1], the “CDK2 HIBIT Protein Quantification Maximum” value is 74% and the DC50 is 4.22 nM. Moreover, the Dmax in assay [2] came out at 31%. Moreover, the “CCNE1 HIBIT Protein Quantification Maximum” value in assay [3] was determined as 18%.

For the compound `CC1CCCC1N1C(=O)C2(CC2)c2cnc(NC3CCN(S(=O)(=O)N4CC5(CCCN(C6CCCN(c7cccc8c7n(C)c(=O)n8C7CCC(=O)NC7=O)C6)C5)C4)CC3)nc21` (stereo not drawn) [Compound 135, 3-{3-Methyl-4-[3-(2-{4-[7′-(2-methylcyclopentyl)-6′-oxospiro[cyclopropane-1,5′-pyrrolo[2,3-d]pyrimidin]-2′-ylamino]piperidin-1-ylsulfonyl}-2,6-diazaspiro[3.5]nonan-6-yl)piperidin-1-yl]-2-oxo-1,3-benzodiazol-1-yl}piperidine-2,6-dione], in assay [1], the “CDK2 HIBIT Protein Quantification Maximum” value is given as 54% and it took 16.3 nM to reach half-maximal degradation (DC50). The Dmax in assay [2] amounted to 8%. For the same compound, the “CCNE1 HIBIT Protein Quantification Maximum” value in assay [3] came out at 8%.

On to `CC1CCCC1N1C(=O)C2(CC2)c2cnc(NC3CCN(S(=O)(=O)N4CC5(CCCN(c6cccc(-c7cccc8c7n(C)c(=O)n8C7CCC(=O)NC7=O)c6)C5)C4)CC3)nc21` (stereo not drawn) [Compound 136, 3-{3-Methyl-4-[3-(2-{4-[7′-(2-methylcyclopentyl)-6′-oxospiro[cyclopropane-1,5′-pyrrolo[2,3-d]pyrimidin]-2′-ylamino]piperidin-1-ylsulfonyl}-2,6-diazaspiro[3.5]nonan-6-yl)phenyl]-2-oxo-1,3-benzodiazol-1-yl}piperidine-2,6-dione], for which, in assay [1], the “CDK2 HIBIT Protein Quantification Maximum” value came out at 61% and it took 131 nM to reach half-maximal degradation (DC50). Besides, the Dmax in assay [2] was 14%. Moreover, the “CCNE1 HIBIT Protein Quantification Maximum” value in assay [3] was found to be 7%.

Regarding `CC1CCCC1N1C(=O)C2(CC2)c2cnc(NC3CCN(S(=O)(=O)N4CC5(CCCN(C6CCN(c7cccc8c7n(C)c(=O)n8C7CCC(=O)NC7=O)C6)C5)C4)CC3)nc21` (stereo not drawn) [Compound 137], in assay [1], the “CDK2 HIBIT Protein Quantification Maximum” value is reported as 52% and it took 3.25 nM to reach half-maximal degradation (DC50). Also, the Dmax in assay [2] (6 h) came out at 8%. In addition, the “CCNE1 HIBIT Protein Quantification Maximum” value in assay [3] is on record as 38%.

Turning to `CC1CCCC1N1C(=O)C2(CC2)c2cnc(NC3CCN(S(=O)(=O)N4CC5(CCCN(CCOc6cccc7c6n(C)c(=O)n7C6CCC(=O)NC6=O)C5)C4)CC3)nc21` (stereo not drawn) [Compound 138, 3-{3-Methyl-4-[2-(2-{4-[7′-(2-methylcyclopentyl)-6′-oxospiro[cyclopropane-1,5′-pyrrolo[2,3-d]pyrimidin]-2′-ylamino]piperidin-1-ylsulfonyl}-2,6-diazaspiro[3.5]nonan-6-yl)ethoxy]-2-oxo-1,3-benzodiazol-1-yl}piperidine-2,6-dione], the “CDK2 HIBIT Protein Quantification Maximum” value in assay [1] is recorded as 45%. Further, in assay [2] (6 h), the Dmax stood at 3%. Moreover, the “CCNE1 HIBIT Protein Quantification Maximum” value in assay [3] amounted to 14%.

For `CC1CCCC1N1C(=O)C2(CC2)c2cnc(NC3CCN(S(=O)(=O)N4CC5(CCCN(C6CCN(c7cccc8c7n(C)c(=O)n8C7CCC(=O)NC7=O)CC6)C5)C4)CC3)nc21` (stereo not drawn) [Compound 139], in assay [1], the “CDK2 HIBIT Protein Quantification Maximum” value was 65% and the DC50 is 3.23 nM. In addition, the Dmax in assay [2] (6 h) stood at 11%. In assay [3], the “CCNE1 HIBIT Protein Quantification Maximum” value is listed as 50%.

For `CC1CCCC1N1C(=O)C2(CC2)c2cnc(NC3CCN(S(=O)(=O)C4CCN(CC5CCN(c6ccc7c(c6)n(C)c(=O)n7C6CCC(=O)NC6=O)CC5)C4)CC3)nc21` (stereo not drawn) [Compound 140, 3-(3-Methyl-5-{4-[(3-{4-[7′-(2-methylcyclopentyl)-6′-oxospiro[cyclopropane-1,5′-pyrrolo[2,3-d]pyrimidin]-2′-ylamino]piperidin-1-ylsulfonyl}pyrrolidin-1-yl)methyl]piperidin-1-yl}-2-oxo-1,3-benzodiazol-1-yl)piperidine-2,6-dione], in assay [1], the “CDK2 HIBIT Protein Quantification Maximum” value is 71% and the DC50 worked out at 2.09 nM. The Dmax in assay [2] (6 h) was determined as 8%. Besides, in assay [3], the “CCNE1 HIBIT Protein Quantification Maximum” value was found to be 20%.

Take `CC1CCCC1N1C(=O)C2(CC2)c2cnc(NC3CCN(S(=O)(=O)N4CCC5(CCN(CCCCCCCOc6cccc7c6n(C)c(=O)n7C6CCC(=O)NC6=O)C5)C4)CC3)nc21` (stereo not drawn) [Compound 141, 3-(3-Methyl-4-{[7-(7-{4-[7′-(2-methylcyclopentyl)-6′-oxospiro[cyclopropane-1,5′-pyrrolo[2,3-d]pyrimidin]-2′-ylamino]piperidin-1-ylsulfonyl}-2,7-diazaspiro[4.4]nonan-2-yl)heptyl]oxy}-2-oxo-1,3-benzodiazol-1-yl)piperidine-2,6-dione]: the “CDK2 HIBIT Protein Quantification Maximum” value in assay [1] is recorded as 49%. In addition, the Dmax in assay [2] (6 h) is 27%. The “CCNE1 HIBIT Protein Quantification Maximum” value in assay [3] is given as 25%.

Turning to `CC1CCCC1N1C(=O)C2(CC2)c2cnc(NC3CCN(S(=O)(=O)N4CC5(CCCCN5CC5CCN(c6cccc7c6n(C)c(=O)n7C6CCC(=O)NC6=O)CC5)C4)CC3)nc21` (stereo not drawn) [Compound 142], in assay [1], the “CDK2 HIBIT Protein Quantification Maximum” value is 53% and the DC50 was determined as 36.1 nM. For the same compound, in assay [2] (6 h), the Dmax came to 5%. For the same compound, the “CCNE1 HIBIT Protein Quantification Maximum” value in assay [3] is recorded as 26%.

With `CC1CCCC1N1C(=O)C2(CC2)c2cnc(NC3CCN(S(=O)(=O)N4CC5(CN(CCCCOc6ccc7c(c6)n(C)c(=O)n7C6CCC(=O)NC6=O)C5)C4)CC3)nc21` (stereo not drawn) [Compound 143], the “CDK2 HIBIT Protein Quantification Maximum” value in assay [1] turned out to be 11%. Moreover, in assay [2] (6 h), the Dmax was -2%. Moreover, the “CCNE1 HIBIT Protein Quantification Maximum” value in assay [3] worked out at 1%.

As to `CC1CCCC1N1C(=O)C2(CC2)c2cnc(NC3CCN(S(=O)(=O)N4CC5(CN(CC6CCN(c7ccc8c(c7)n(C)c(=O)n8C7CCC(=O)NC7=O)CC6)C5)C4)CC3)nc21` (stereo not drawn) [Compound 144], in assay [1], the “CDK2 HIBIT Protein Quantification Maximum” value turned out to be 75% and the DC50 stood at 1.97 nM. For the same compound, in assay [2] (6 h), the Dmax was 49%. Moreover, the “CCNE1 HIBIT Protein Quantification Maximum” value in assay [3] turned out to be 39%.

Regarding `CC1CCCC1N1C(=O)C2(CC2)c2cnc(NC3CCN(S(=O)(=O)N4CCN(CC5CCN(c6cccc7c6n(C)c(=O)n7C6CCC(=O)NC6=O)CC5)CC4)CC3)nc21` (stereo not drawn) [Compound 145], in assay [1], the “CDK2 HIBIT Protein Quantification Maximum” value came out at 79% and the DC50 was found to be 4.08 nM. Also, in assay [2] (6 h), the Dmax was found to be 14%. Besides, the “CCNE1 HIBIT Protein Quantification Maximum” value in assay [3] is recorded as 25%.

As to `Cn1c(=O)n(C2CCC(=O)NC2=O)c2ccc(C3CCN(Cc4cccc(S(=O)(=O)N5CCC(Nc6ncc7c(n6)N([C@@H]6CCC[C@@H](O)C6)C(=O)C76CC6)CC5)c4)CC3)cc21` (stereo partly drawn) [Compound 147, 3-[5-(1-{[3-(4-{7′-[(1R,3R)-3-Hydroxycyclohexyl]-6′-oxospiro[cyclopropane-1,5′-pyrrolo[2,3-d]pyrimidin]-2′-ylamino}piperidin-1-ylsulfonyl)phenyl]methyl}piperidin-4-yl)-3-methyl-2-oxo-1,3-benzodiazol-1-yl]piperidine-2,6-dione], in assay [1], the “CDK2 HIBIT Protein Quantification Maximum” value amounted to 64% and the DC50 was found to be 11 nM. Also, the Dmax in assay [2] was 2%. In addition, the “CCNE1 HIBIT Protein Quantification Maximum” value in assay [3] is 13%.

Regarding `Cn1c(=O)n(C2CCC(=O)NC2=O)c2cccc(C3CCN(Cc4cccc(S(=O)(=O)N5CCC(Nc6ncc7c(n6)N([C@@H]6CCC[C@@H](O)C6)C(=O)C76CC6)CC5)c4)CC3)c21` (stereo partly drawn) [Compound 148], in assay [1], the “CDK2 HIBIT Protein Quantification Maximum” value is on record as 78% and the DC50 came to 6 nM. Moreover, in assay [2] (6 h), the Dmax amounted to 2%. Also, in assay [3], the “CCNE1 HIBIT Protein Quantification Maximum” value worked out at 44%.
